Laboratory results taken from patent US7268164B2, “Anti-epileptogenic agents” (Queens University at Kingston, priority 1997, dated 2007).
Structures can show the parent of a compound that is named as a salt.

How the values were obtained:
[1] = test system: MES-induced seizure; pentylenetetrazol induced seizure; test: biological activity per Example 6 (MES, scMet anticonvulsant tests); assay type: in vivo, carsworth Farms #1 mice or Sprague-Dawley rats; settings: tested per Example 6
Procedure: (§1) Selected compounds were dissolved in 0.9% NaCl or suspended in a mixture of 30% polyethylene glycol 400 and 70% water, and tested in an animal model. Briefly, the compounds were administered intraperitoneally or or orally to carsworth Farms #1 mice (in a volume of 0.01 ml/g of body weight) or Sprague-Dawley rats (in a volume of 0.004 ml/g body weight). Times on peak effect and peak neurologic deficit were determined before the anticonvulsant tests were administered.
(§2) The maximal electroshock seizure test (MES), corneal electrodes primed with a drop of electrolyte solution (0.9% NaCl) were applied to the eyes of the animal and an electrical stimulus (50 mA for mice, 150 mA for rats; 60 Hz) was delivered for 0.2 second at the time of the peak effect of the test compound. The animals were restrained by hand and released at the moment of stimulation in order to permit observation of the seizure.
(§3) In the subcutaneous pentylenetetrazol threshold test (scMet), the convulsant dose (CD97) of pentylenetetrazol (85 mg/kg in rats) was injected at the time of peak effect of the test compound. The animals were isolated and observed for 30 minutes to see whether seizures occurred.
(§4) Acute anti-convulsant drug-induced toxicity in lab animals is usually characterized by some type of neurologic abnormality. In mice, these abnormalities can be detected by the rotorod ataxia test, which is somewhat less useful in rats. In the rotorod ataxia test, neurologic deficit is indicated by the inability of the animal to maintain equilibrium for at least one minute on a knurled rod rotating at 6 rpm. […] Inability to return the leg to normal position indicates a neurologi deficit.

[2] = test system: mice; test: testing of dioxapiperazine compounds in mice (Example 7); assay type: in vivo; set-up: key to Activity: 300 mg/kg / Activity: 100 mg/kg / Activity: 30 mg/kg: 0 (inactive); 1: Activity on scale of 0 (inactive) to 4.; 2: Activity on scale of 0 (inactive) to 4.; 3: Activity on scale of 0 (inactive) to 4.; Activity on scale of 0 (inactive) to 4; settings: for Activity: 100 mg/kg / Activity: 300 mg/kg / Activity: 30 mg/kg: mice, 30 minutes and four hours after administration; for anti-convulsive activity: animal model system of Table 4, in words
Procedure: as §1, §2, §3, §4
Testing of the compounds was performed in 12 mice at doses of 30, 100, 300 mg/kg (4 mice each) 30 minutes and four hours after the test compounds was administered.

[3] = test system: spontaneous recurrent seizures; test: spontaneous recurrent seizures (SRS) model of epilepsy; assay type: in vivo, Sprague-Dawley rat; settings: for effective in decreasing seizures by at least 50%: administered at Time 1 (Day 1, after status epilepticus, before onset of SRS); for effective in decreasing seizures by at least 50% / effective in decreasing seizures (seizure frequency) by at least 50%: 20 mg/kg/day i.v. for 10 days; for effective in decreasing seizures (seizure frequency) by at least 50%: administered at Time 2 (Day 30, established SRS)
Procedure: The “spontaneous recurrent seizures” (SRS) model of epilepsy was used to evaluate candidate compounds in a model for Phase 1 epileptogenesis (see, e.g., Mello, E. et al., Epilepsia (1993) 34:985; Cavalheiro, J. et al., Epilepsia (1991) 32:778). In the SRS model, an adult male Sprague-Dawley rat (c. 260 g) is given pilocarpine by injection (380 mg/kg i.p.). Within 25 minutes, the animal enters status epilepticus, which typically lasts for 15-20 hours (although about 10% of animals die at this stage). The rat is allowed to spontaneously recover and is given food and water ad lib. and maintained on a 12 hour/12 hour light/dusk cycle. Rats are usually studied in groups of four. Beginning on about day 13-15, the rats develop spontaneous recurrent seizures, which occur at the rate of about 4-5 per week. The rats are videotaped 24 hours per day, and the videotapes are reviewed for behavioral seizures (including head nodding, forelimb clonus, and rearing), which are counted. The animals are watched for three months, permitting evaluation of a sufficient number of seizures. […] Administration of the candidate compound at Time 1 permits evaluation for anti-epileptogenic properties (ability to prevent the onset of seizures); administration of compounds at Time 2 permits evaluation of drugs as anti-ictogenics with the ability to suppress established seizures.
As a reference, the standard anticonvulsant phenytoin was administered (20 mg/kg/day i.v. for 10 day) at either Time 1 or Time 2.

[4] = solubility in saline; assay type: physicochemical

## COc1cc(C)c(C(N)CC(=O)O)cc1C (stereo not drawn) [β-2,5-dimethyl-4-methoxyphenyl-β-alanine]
[1]
  biological activity: at least weak activity

## NC(CC(=O)O)c1ccc(OC(F)(F)F)cc1 (stereo not drawn) [β-p-(trifluoromethoxy)phenyl-β-alanine]
[1]
  biological activity: at least weak activity

## N=C(N)NCCC[C@@H]1NC(=O)[C@@H](c2ccccc2)NC1=O [c/D-Peg-L-Arg]
[2]
  Activity: 100 mg/kg: 0
  Activity: 300 mg/kg: 0

## NCCC(=O)O [β-alanine]
[3]
  effective in decreasing seizures by at least 50%: 75%
  effective in decreasing seizures (seizure frequency) by at least 50%: 50%

## COc1cccc(C(N)CC(=O)O)c1O (stereo not drawn) [β-2-hydroxy-3-methoxyphenyl-β-alanine]
[1]
  biological activity: at least weak activity

## O=C1CNC(=O)[C@@H](c2ccccc2)N1 [c/D-Peg-Gly]
[2]
  Activity: 30 mg/kg: 0
  Activity: 100 mg/kg: 1
  Activity: 300 mg/kg: 2

## CC(C)(C)C1CCC(C(CN)C(=O)O)CC1.Cl (stereo not drawn) [Compound B5P127, α-(4-tert-Butylcyclohexyl)-β-alanine Hydrochloride Salt]
[3]
  effective in decreasing seizures by at least 50%: 75%
  effective in decreasing seizures (seizure frequency) by at least 50%: 50%

## CC(C)CC1NC(=O)C(C)NC1=O [c/L-alanine-D-leucine]
[2]
  anti-convulsive activity: active

## NCCC1NC(=O)C(c2ccccc2)NC1=O [c/D-Peg-L-diaminobutyric acid]
[2]
  Activity: 100 mg/kg: 0
  Activity: 300 mg/kg: 0

## C[C@@H]1NC(=O)[C@H](c2ccccc2)NC1=O [c/L-Peg-L-Ala]
[2]
  Activity: 100 mg/kg: 0
  Activity: 300 mg/kg: 0

## CSCCC1NC(=O)C(c2ccccc2)NC1=O [c/D-Peg-D-Met]
[2]
  Activity: 100 mg/kg: 0
  Activity: 300 mg/kg: 0

## Cc1ccc(C(CC(=O)O)NCl)cc1 (stereo not shown)
[4]
  solubility: 7.2-7.1 (M, 4H)4.17-4.09(t, 1H, 7.4 Hz)2.39-2.46 (m, 2H)solubility: ~10 mg/mlsaline

## CSCCC1NC(=O)C(c2ccccc2)NC1=O [c/D-Peg-L-Met]
[2]
  Activity: 100 mg/kg: 0
  Activity: 300 mg/kg: 1

## NC(CC(=O)O)c1ccccc1 (stereo not drawn) [Compound B5P91, β-Phenyl-β-alanine]
[4]
  solubility: 7.35-7.2 (s, 5H)4.45 (t, 1H, 7.3 Hz)2.8-2.1 (m, 2H)solubility: ~10 mg/mlsaline

## NCCCC1NC(=O)C(c2ccccc2)NC1=O [c/D-Peg-L-Ornithine (Orn)]
[2]
  Activity: 100 mg/kg: 0
  Activity: 300 mg/kg: 0

## cyclo-D-phenylglycyl-(S-Me)-L-cysteine [c/D-Peg-L-(S-methyl)-L-cysteine]
[2]
  anti-convulsive activity: strong anti-convulsive activity
  Activity: 30 mg/kg: 2
  Activity: 100 mg/kg: 3
  Activity: 300 mg/kg: 4

## C[C@@H]1NC(=O)[C@@H](c2ccccc2)NC1=O [c/D-Peg-L-Ala, Cyclo-D-phenylglycine-L-alanine]
[2]
  anti-convulsive activity: strong anti-convulsive activity
  Activity: 30 mg/kg: 2
  Activity: 100 mg/kg: 3
  Activity: 300 mg/kg: 4

## NCCCCC1NC(=O)C(c2ccccc2)NC1=O [c/D-Peg-D-Lys]
[2]
  Activity: 100 mg/kg: 0
  Activity: 300 mg/kg: 0

## O=C(O)CC(NCl)c1ccc(Cl)cc1 (stereo not shown)
[4]
  solubility: 7.3-7.17 (s, 4H)4.07-4.17 (t, 7H, 7.2 Hz)2.45-2.55 (dt, 4.5 Hz, 3.5Hz)solubility: ~10 mg/mlsaline

## NCCCCC1NC(=O)C(c2ccc(O)cc2)NC1=O [c/D-(p-OH)-Peg-L-Lys]
[2]
  Activity: 100 mg/kg: 0
  Activity: 300 mg/kg: 0

## NC(CC(=O)O)c1cccc(C(F)(F)F)c1F (stereo not drawn) [β-2-fluoro-3-(trifluoromethyl)phenyl-β-alanine]
[1]
  biological activity: moderate

## O=C1NC(=O)C(c2ccccc2)(c2ccccc2)N1 [phenytoin]
[3]; administered at Time 1, 20 mg/kg/day i.v. for 10 day
  preventing the onset of seizures: ineffective
[3]
  effective in decreasing seizures (seizure frequency) by at least 50%: 75%

## NCCCCC1NC(=O)C(c2ccccc2)NC1=O [c/D-Peg-L-Lys]
[2]
  Activity: 100 mg/kg: 0
  Activity: 300 mg/kg: 1

## COc1ccc(C(N)CC(=O)O)cc1C (stereo not drawn) [β-3-methyl-4-methoxyphenyl-β-alanine]
[1]
  biological activity: slight

## CC1NC(=O)C(c2ccc(O)cc2)NC1=O [c/D-(p-OH)-Peg-L-Ala]
[2]
  Activity: 100 mg/kg: 0
  Activity: 300 mg/kg: 0

## NCCC[C@H]1NC(=O)[C@@H](c2ccccc2)NC1=O [c/D-Peg-D-Orn]
[2]
  Activity: 100 mg/kg: 0
  Activity: 300 mg/kg: 0

## Cc1ccc(C(N)CC(=O)O)cc1 (stereo not drawn) [β-p-methylphenyl-β-alanine hydrochloride]
[1]
  biological activity: at least weak activity
